Test results from article PMC5607274, “An iterative compound screening contest method for identifying target protein inhibitors using the tyrosine-protein kinase Yes” (Scientific Reports, 2017).

Each compound was assayed against T1, human recombinant Yes [a.a. 2–543 (end)] (Homo sapiens, UniProt P07947) (assay: ADP-Glo kinase assay, inhibition rates of Yes phosphorylation activity (first and second screening)). Details: first screening; mean of n = 4 wells; 10 μmol L−1 compound.
T1 construct: human recombinant Yes [a.a; 2–543 (end)]; purchased BPS Bioscience 40488
Assay type: biochemical
Summary of the method: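 Hits from a first pass were rescreened after re-dissolution from fresh powder. The first pass reported the mean inhibition rate of quadruplicate wells per compound. Activity was that of recombinant human Yes [a.a. 2–543] kinase, read out with the ADP-Glo ADP-detection method.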

T1 sequence (P07947 2-543): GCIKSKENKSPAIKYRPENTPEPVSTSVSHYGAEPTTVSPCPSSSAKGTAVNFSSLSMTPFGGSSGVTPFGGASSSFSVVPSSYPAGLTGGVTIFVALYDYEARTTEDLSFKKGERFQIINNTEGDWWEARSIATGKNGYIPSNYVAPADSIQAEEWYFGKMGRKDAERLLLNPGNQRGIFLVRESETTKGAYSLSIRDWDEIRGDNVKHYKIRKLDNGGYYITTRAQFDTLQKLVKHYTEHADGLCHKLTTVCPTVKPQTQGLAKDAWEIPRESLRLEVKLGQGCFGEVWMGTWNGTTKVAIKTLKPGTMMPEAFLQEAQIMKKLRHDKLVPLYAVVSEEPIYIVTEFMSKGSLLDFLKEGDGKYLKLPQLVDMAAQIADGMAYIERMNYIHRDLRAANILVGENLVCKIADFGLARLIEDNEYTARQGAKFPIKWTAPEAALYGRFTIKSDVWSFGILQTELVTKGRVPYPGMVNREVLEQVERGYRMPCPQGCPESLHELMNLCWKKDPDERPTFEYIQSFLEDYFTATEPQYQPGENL

Row | Compound | First screening IR (inhibition rate)
1 | CCOC(=O)c1c(N)n(CC(C)NC(=O)C2CC2)c2nc3ccccc3nc12 (centres unmarked) [Compound Z56790662] | -2%
2 | Cc1cc(/C=N/Nc2nc(-c3ccc(F)cc3)cs2)c(C)n1-c1cc(Cl)ccc1Cl [Compound Z56791351] | -8%
3 | Cc1ccccc1Nc1ncnc(N)n1 [Compound Z56791580] | 15%
4 | CC(C)(C)c1cc(-n2c(-c3cccnc3)nc3cc4c(cc32)OCCO4)cc(C(C)(C)C)c1O [Compound Z56793119] | 6%
5 | Cc1cccc(C)c1OCc1nc2c3c(-c4ccccc4)c(-c4ccccc4)oc3ncn2n1 [Compound Z56793398] | 20%
6 | Clc1ccc(/C=N/Nc2ncnc3c2cnn3-c2ccccc2)cc1 [Compound Z56795594] | 13%
7 | c1ccc(-c2nc3c4ccccc4c4ccccc4c3n2-c2ccccc2)cc1 [Compound Z56798059] | 6%
8 | Clc1ccc(/C=C2/CCCc3c2nc2ncnn2c3-c2ccc(Cl)cc2Cl)c(Cl)c1 [Compound Z56798990] | 3%
9 | Clc1ccccc1/C=C1\CCCc2c1nc1ncnn1c2-c1ccccc1Cl [Compound Z56799005] | 6%
10 | COc1ccccc1Nc1ncnc(N)n1 [Compound Z56799636] | -3%
11 | CCc1cccc(CC)c1NC(=O)COC(=O)CC1c2ccccc2CCN1S(=O)(=O)c1ccc(F)cc1 (centres unmarked) [Compound Z56803956] | 27%
12 | O=C(Nc1cc(C(F)(F)F)ccc1N1CCCCC1)c1ccc(Cl)c(S(=O)(=O)Nc2ccccc2C(=O)Nc2cc(C(F)(F)F)ccc2N2CCCCC2)c1 [Compound Z56805970] | 44%
13 | CN(C1CCS(=O)(=O)C1)S(=O)(=O)c1ccc(F)cc1 (centres unmarked) [Compound Z56813369] | -5%
14 | O=C(Nc1ccc(C2(c3ccc(NC(=O)c4ccc(N5CCCCCC5)c([N+](=O)[O-])c4)cc3)CCCCC2)cc1)c1ccc(N2CCCCCC2)c([N+](=O)[O-])c1 [Compound Z56818449] | -7%
15 | CCc1ccc(-c2cc(-c3ccccc3)c3c(n2)/C(=C\c2ccc(N(C)C)cc2)CCC3)cc1 [Compound Z56830412] | -14%
16 | Cc1ccc(NC(=O)C(=O)c2c(-c3ccccc3)cc3ccccn23)cc1S(=O)(=O)N1CCOCC1 [Compound Z56835405] | -2%
17 | Cc1cc(C)n(-c2nc(-c3cccnc3)nc3ccccc23)n1 [Compound Z56839033] | 12%
18 | COc1cc(/C=N/Nc2nc(-c3ccncc3)nc3ccccc23)ccc1O [Compound Z56841676] | 18%
19 | Cc1cc(N=C2C(=O)Nc3c(Cl)cc(Cl)cc32)ccc1Br [Compound Z56849070] | 1%
20 | Brc1cccc(C2C=C(c3ccccc3)Nc3ncnn32)c1 (centres unmarked) [Compound Z56850769] | 9%

Row | Compound | First screening IR (inhibition rate)
21 | COCCN1C(=O)/C(=C/c2c(N3CCN(Cc4ccccc4)CC3)nc3ccc(C)cn3c2=O)SC1=S [Compound Z56850824] | -11%
22 | COc1ccc(CCNC(=O)C(C#N)c2nc3ccccc3nc2N2CCN(Cc3ccccc3)CC2)cc1 (centres unmarked) [Compound Z56851971] | 3%
23 | Cn1nc([N+](=O)[O-])c2c(-c3nc4ccccc4n3C)c(N)n(C3CCCCC3)c2c1=O [Compound Z56852588] | 5%
24 | CCN1CCN(c2nc3ccccc3nc2C(C#N)C(=O)NCCc2ccc(OC)c(OC)c2)CC1 (centres unmarked) [Compound Z56854281] | 38%
25 | N#CC(C(=O)NCc1ccc2c(c1)OCO2)c1nc2ccccc2nc1N1CCN(Cc2ccccc2)CC1 (centres unmarked) [Compound Z56854297] | -7%
26 | Nc1c(S(=O)(=O)c2ccccc2)c2nc3ccccc3nc2n1CCNC(=O)c1ccc(Cl)cc1 [Compound Z56854331] | 9%
27 | CCOC(=O)c1c(-c2ccc(C)cc2)csc1Nc1nc2ccccc2nc1N1CCN(CC)CC1 [Compound Z56854384] | -3%
28 | COc1ccc(-n2nnc3c4c(c(Nc5ccc(C)cc5)cc32)C(=O)c2ccccc2C4=O)cc1 [Compound Z56857970] | 7%
29 | COc1ccc(Nc2cc3c(nnn3-c3ccc(C)cc3)c3c2C(=O)c2ccccc2C3=O)cc1 [Compound Z56857974] | 2%
30 | CN(C)S(=O)(=O)c1cc(S(=O)(=O)c2ccc(Cl)c(S(=O)(=O)N(C)C)c2)ccc1Cl [Compound Z56862791] | 1%
31 | Cc1cc(=O)[nH]c(SCC(=O)c2ccc3c(c2)NC(=O)CO3)n1 [Compound Z56863397] | -14%
32 | Cc1cccc(C)c1N=C1SC(C(=O)Nc2ccc(OC(F)F)cc2)C(N)=C1C(=O)N1CCN(C)CC1 (centres unmarked) [Compound Z56863426] | 15%
33 | CCCCC(CC)CN1C(=O)/C(=C/c2c(NCCCn3ccnc3)nc3c(C)cccn3c2=O)SC1=S (centres unmarked) [Compound Z56863942] | 0%
34 | CCCCCCCCN1C(=O)/C(=C/c2c(NCCCN3CCOCC3)nc3c(C)cccn3c2=O)SC1=S [Compound Z56863983] | 0%
35 | O=C(NC1(C(F)(F)F)Oc2ccccc2O1)Sc1ccccc1 [Compound Z56864837] | 42%
36 | COc1ccc(/C(O)=C2\C(=O)C(=O)N(CCN3CCNCC3)C2c2cccc(Oc3ccccc3)c2)cc1 (centres unmarked) [Compound Z56865657] | 6%
37 | Cc1cc(/C(O)=C2\C(=O)C(=O)N(CCN3CCOCC3)C2c2ccc(F)cc2)ccc1OCC(C)C (centres unmarked) [Compound Z56865693] | -1%
38 | CCOC(=O)c1c(Nc2nc3ccccc3nc2N2CCN(Cc3ccccc3)CC2)sc(C)c1C [Compound Z56866112] | 2%
39 | COC(=O)c1c(Nc2nc3ccccc3nc2N2CCN(C/C=C/c3ccccc3)CC2)sc(C)c1C [Compound Z56867786] | 11%
40 | O=S(=O)(c1cccc(-c2n[nH]c(-c3ccccc3)c2-c2nc3ccccc3[nH]2)c1)N1CCCC1 [Compound Z56870429] | -20%

Row | Compound | First screening IR (inhibition rate)
41 | COc1ccc(CCn2c(N)c(C(=O)NCc3ccc4c(c3)OCO4)c3nc4ccccc4nc32)cc1OC [Compound Z56872869] | 34%
42 | CCCCCn1c(N)c(C(=O)NCCN2CCOCC2)c2nc3ccccc3nc21 [Compound Z56872965] | 48%
43 | NS(=O)(=O)c1ccc(Cl)c(S(N)(=O)=O)c1 [Compound Z56877166] | 0%
44 | CN(C)S(=O)(=O)c1ccc(Cl)c(S(=O)(=O)N(C)C)c1 [Compound Z56877204] | 7%
45 | CN(C)S(=O)(=O)c1cccc(S(=O)(=O)c2cccc(S(=O)(=O)N(C)C)c2)c1 [Compound Z56877233] | 7%
46 | CC(c1ccccc1)n1c(NC(=O)c2ccccc2)c(S(=O)(=O)c2ccccc2)c2nc3ccccc3nc21 (centres unmarked) [Compound Z56877281] | -3%
47 | NS(=O)(=O)c1cc(S(=O)(=O)c2ccc(Cl)c(S(N)(=O)=O)c2)ccc1Cl [Compound Z56888775] | -18%
48 | CSc1ncccc1C(=O)OCC(=O)Nc1nc2ccccc2s1 [Compound Z56896575] | -4%
49 | Cc1c(N=C2SC(CC(=O)Nc3ccc(F)cc3)C(=O)N2CC2CCCCC2)c(=O)n(-c2ccccc2)n1C (centres unmarked) [Compound Z56900652] | 8%
50 | Cc1ccc(/C=C/C2=Cc3c(sc(N)c3C#N)C(C)(C)C2)o1 [Compound Z56910454] | 31%
51 | Cl.Nc1ccc(-c2cc(-c3ccccc3)c3cc(Cl)ccc3n2)cc1 [Compound Z56913268] | -5%
52 | CC(=O)c1cccc(NC(=O)c2sc(Nc3ccc(C)cc3)c(C(=O)NCCN3CCOCC3)c2N)c1 [Compound Z56914008] | -3%
53 | COc1ccc(NC(=O)c2c(Nc3ccc(OC(F)F)cc3)sc(C(=O)Nc3ccc4c(c3)OCO4)c2N)cc1Cl [Compound Z56918070] | 16%
54 | Cc1[nH]n(-c2ccccc2)c(=O)c1/C(=N/NC(=O)c1cc(-c2ccccc2)n[nH]1)c1ccccc1 [Compound Z56919929] | 1%
55 | Cc1ccc(-c2nn3c(=O)c4c5c(sc4nc3c3ccccc23)CC(C(C)(C)C)CC5)cc1 (centres unmarked) [Compound Z56929220] | -24%
56 | Nc1ncnc(Nc2ccc(F)cc2)n1 [Compound Z56931701] | -4%
57 | Nc1ncnc(Nc2ccccc2F)n1 [Compound Z56931704] | 12%
58 | Nc1ncnc(Nc2cccc(C(F)(F)F)c2)n1 [Compound Z56931708] | 13%
59 | COc1ccc(Nc2ncnc(N)n2)cc1 [Compound Z56938001] | 14%

Same assay, conditions: second screening, dissolved from fresh powder; n = 4; 10 μmol L−1 compound

Row | Compound | Second screening IR (inhibition rate)
60 | O=C(Nc1cc(C(F)(F)F)ccc1N1CCCCC1)c1ccc(Cl)c(S(=O)(=O)Nc2ccccc2C(=O)Nc2cc(C(F)(F)F)ccc2N2CCCCC2)c1 [Compound Z56805970] | -10%
61 | COc1ccc(CCn2c(N)c(C(=O)NCc3ccc4c(c3)OCO4)c3nc4ccccc4nc32)cc1OC [Compound Z56872869] | -24%
62 | Cc1ccc(/C=C/C2=Cc3c(sc(N)c3C#N)C(C)(C)C2)o1 [Compound Z56910454] | 36%
